Results published in paper PMC6199744, “Development of Chemical Proteomics for the Folateome and Analysis of the Kinetoplastid Folateome” (ACS Infectious Diseases, 2018).
Read-outs that look alike come from different tables or passages of the source.

Experiments:
[1] = target: PTERIDINE REDUCTASE (TB927.8.2210) (Trypanosoma brucei brucei, UniProt O76290); assay: Multitargeted bead mixture competition; assay type: binding, T. brucei; details: for fold change vs vehicle control / fold change - vehicle control: protein PTERIDINE REDUCTASE (CZT00009056.1); for fold change vs vehicle control: vehicle control = 1; for competition for PTR1 (Figure 6): bead mixture, compound 100 μM
Sequence of PTERIDINE REDUCTASE (TB927.8.2210) (O76290 entry or part of it): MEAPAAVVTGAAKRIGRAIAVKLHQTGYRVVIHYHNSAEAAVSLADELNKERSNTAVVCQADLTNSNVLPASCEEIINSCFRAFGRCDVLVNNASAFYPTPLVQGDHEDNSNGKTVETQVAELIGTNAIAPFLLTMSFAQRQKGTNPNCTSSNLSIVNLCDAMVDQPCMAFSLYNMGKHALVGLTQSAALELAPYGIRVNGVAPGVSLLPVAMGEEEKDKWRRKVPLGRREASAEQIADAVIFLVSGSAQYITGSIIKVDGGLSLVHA

[2] = target: DIHYDROFOLATE REDUCTASE-T[…] (TB427.07.5480) (Trypanosoma brucei brucei, UniProt Q27783); assay: Multitargeted bead mixture competition; assay type: binding; details: for fold change vs vehicle control: vehicle control = 1
Sequence of UniProt Q27783 (Q27783 whole entry): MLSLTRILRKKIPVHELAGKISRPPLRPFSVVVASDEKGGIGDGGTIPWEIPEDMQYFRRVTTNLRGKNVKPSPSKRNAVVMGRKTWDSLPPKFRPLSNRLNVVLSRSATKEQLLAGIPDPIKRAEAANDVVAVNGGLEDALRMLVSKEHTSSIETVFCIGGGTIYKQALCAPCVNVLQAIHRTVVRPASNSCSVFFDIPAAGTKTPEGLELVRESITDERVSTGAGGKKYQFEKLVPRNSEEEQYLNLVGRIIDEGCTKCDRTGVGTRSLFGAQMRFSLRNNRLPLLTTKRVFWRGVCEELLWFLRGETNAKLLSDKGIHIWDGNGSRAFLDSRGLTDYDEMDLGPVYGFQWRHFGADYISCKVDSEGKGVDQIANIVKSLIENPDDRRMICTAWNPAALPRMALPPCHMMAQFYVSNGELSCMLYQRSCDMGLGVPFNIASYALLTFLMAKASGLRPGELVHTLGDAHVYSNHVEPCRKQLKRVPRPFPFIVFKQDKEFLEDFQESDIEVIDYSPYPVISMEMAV

[3] = target: GLYCERALDEHYDE 3-PHOSPHATE DEHYDROGENASE, GLYCOSOM (TB427.06.4300) (Trypanosoma brucei brucei, UniProt P22512); assay: Multitargeted bead mixture competition; assay type: binding, T. brucei; details: for fold change / fold change - vehicle control: protein TB427.06.4300 GLYCERALDEHYDE 3-PHOSPHATE DEHYDROGENASE, GLYCOSOMAL; for fold change: vehicle control = 1
Sequence of UniProt P22512 (P22512 whole entry): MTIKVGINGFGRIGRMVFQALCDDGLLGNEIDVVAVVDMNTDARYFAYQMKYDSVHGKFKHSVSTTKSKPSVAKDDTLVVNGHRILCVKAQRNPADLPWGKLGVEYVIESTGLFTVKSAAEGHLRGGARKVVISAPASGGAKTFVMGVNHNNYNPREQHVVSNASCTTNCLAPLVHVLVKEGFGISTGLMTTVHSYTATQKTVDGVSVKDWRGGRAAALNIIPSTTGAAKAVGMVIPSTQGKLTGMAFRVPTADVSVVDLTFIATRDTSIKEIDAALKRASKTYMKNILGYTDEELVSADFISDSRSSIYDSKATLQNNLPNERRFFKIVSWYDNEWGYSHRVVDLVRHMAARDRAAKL

[4] = test system: IRON/ASCORBATE OXIDOREDUCTASE FAMILY PROTEIN, PUTA (Tb427.02.6180); assay: Multitargeted bead mixture competition; assay type: binding, T. brucei; details: for fold change: PUTATIVE
[5] = target: T. brucei lysate proteins (Trypanosoma brucei brucei, UniProt P23799); assay type: binding; details: for fold change - vehicle control: protein PUTATIVE ADENYLATE CYCLASE […] (ESAG8) (CZT00028390.1)
Sequence of T. brucei lysate proteins (P23799 whole entry): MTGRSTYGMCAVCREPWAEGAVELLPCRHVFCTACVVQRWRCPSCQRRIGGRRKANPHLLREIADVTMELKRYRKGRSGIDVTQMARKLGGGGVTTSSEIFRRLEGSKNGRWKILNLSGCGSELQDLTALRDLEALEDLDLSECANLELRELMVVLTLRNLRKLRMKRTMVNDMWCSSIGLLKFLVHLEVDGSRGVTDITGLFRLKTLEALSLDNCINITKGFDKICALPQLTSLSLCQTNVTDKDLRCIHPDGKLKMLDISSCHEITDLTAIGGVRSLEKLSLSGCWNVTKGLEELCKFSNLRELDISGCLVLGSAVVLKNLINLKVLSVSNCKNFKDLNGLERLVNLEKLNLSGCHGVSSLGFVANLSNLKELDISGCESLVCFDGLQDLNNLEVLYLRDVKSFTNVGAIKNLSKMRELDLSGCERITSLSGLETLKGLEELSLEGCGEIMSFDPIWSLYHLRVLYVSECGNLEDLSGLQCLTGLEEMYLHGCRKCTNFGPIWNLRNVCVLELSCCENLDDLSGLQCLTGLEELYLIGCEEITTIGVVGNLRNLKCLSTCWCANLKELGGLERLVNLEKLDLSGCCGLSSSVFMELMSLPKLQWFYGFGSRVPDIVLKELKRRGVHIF

[6] = target: T1, HeLa cell extract proteins (Homo sapiens, UniProt P05109); assay type: binding
T1 construct: endogenous in cells; host or cells: HeLa cell extract
T1 sequence (P05109 1-93): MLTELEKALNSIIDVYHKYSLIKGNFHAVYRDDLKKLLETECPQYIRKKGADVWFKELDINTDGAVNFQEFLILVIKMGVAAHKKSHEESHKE

[7] = target: inosine-5′-monophosphate dehydrogenase (Tb927.10.16120) (Trypanosoma brucei brucei, UniProt P50098); assay: Multitargeted bead mixture competition; assay type: binding, T. brucei; details: for fold change: protein TB927.10.16120 INOSINE-5'-MONOPHOSPHATE DEHYDROGENASE, vehicle control = 1
Sequence of inosine-5′-monophosphate dehydrogenase (Tb927.10.16120) (P50098 whole entry): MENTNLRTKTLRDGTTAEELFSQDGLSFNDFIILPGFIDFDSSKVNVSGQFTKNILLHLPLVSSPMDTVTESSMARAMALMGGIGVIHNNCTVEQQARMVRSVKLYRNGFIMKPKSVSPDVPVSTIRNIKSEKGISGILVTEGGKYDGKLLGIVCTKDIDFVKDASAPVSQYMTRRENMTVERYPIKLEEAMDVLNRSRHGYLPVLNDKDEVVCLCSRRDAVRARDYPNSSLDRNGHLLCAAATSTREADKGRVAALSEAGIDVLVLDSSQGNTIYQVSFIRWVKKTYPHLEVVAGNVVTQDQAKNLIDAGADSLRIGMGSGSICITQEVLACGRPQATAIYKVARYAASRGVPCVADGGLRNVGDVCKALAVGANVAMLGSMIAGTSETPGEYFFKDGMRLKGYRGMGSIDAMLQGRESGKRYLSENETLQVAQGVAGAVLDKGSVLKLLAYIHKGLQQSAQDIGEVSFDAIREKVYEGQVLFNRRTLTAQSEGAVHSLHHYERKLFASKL

methylene-THF-reductase = methylene-THF-reductase (Homo sapiens, UniProt P42898); assay: Multitargeted bead mixture competition, HeLa cell extract; assay type: binding
Sequence of methylene-THF-reductase (P42898 whole entry): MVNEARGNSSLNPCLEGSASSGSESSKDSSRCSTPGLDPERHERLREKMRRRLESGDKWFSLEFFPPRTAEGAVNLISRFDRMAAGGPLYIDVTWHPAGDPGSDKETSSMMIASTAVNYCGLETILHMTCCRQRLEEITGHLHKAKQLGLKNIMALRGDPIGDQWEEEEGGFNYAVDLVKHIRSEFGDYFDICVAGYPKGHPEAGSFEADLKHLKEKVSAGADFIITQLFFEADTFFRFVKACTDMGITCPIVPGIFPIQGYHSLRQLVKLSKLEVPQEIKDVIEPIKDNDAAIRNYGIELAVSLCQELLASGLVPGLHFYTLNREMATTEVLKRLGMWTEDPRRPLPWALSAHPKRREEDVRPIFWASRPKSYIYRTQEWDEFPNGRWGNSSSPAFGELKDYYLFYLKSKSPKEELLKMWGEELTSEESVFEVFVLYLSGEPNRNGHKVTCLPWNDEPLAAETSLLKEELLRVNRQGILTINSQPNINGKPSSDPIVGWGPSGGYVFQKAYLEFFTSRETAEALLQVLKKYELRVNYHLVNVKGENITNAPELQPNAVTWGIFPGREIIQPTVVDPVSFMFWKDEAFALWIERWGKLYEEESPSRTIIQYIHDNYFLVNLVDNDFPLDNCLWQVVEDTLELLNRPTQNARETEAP

[8] = target: T2, MTHFS, the 5-formyl-THF-cyclo-ligase (Homo sapiens, UniProt P49914); assay: as above; assay type: binding; details: for binding to MTHFS: bead mixture, HeLa cell extract
T2 sequence (P49914 1-203): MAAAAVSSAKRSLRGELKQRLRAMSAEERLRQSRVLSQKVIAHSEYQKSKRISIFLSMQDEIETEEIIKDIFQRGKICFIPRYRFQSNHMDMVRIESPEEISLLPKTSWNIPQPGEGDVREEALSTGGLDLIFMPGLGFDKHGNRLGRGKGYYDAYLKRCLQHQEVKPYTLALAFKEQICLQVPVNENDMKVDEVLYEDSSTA

PTR1 = target: T3, PTR1 (Leishmania major, UniProt Q01782); assay type: binding; design: endogenous in cells; host or cells: L. major Friedlin promastigote lysate
T3 sequence (Q01782 1-288): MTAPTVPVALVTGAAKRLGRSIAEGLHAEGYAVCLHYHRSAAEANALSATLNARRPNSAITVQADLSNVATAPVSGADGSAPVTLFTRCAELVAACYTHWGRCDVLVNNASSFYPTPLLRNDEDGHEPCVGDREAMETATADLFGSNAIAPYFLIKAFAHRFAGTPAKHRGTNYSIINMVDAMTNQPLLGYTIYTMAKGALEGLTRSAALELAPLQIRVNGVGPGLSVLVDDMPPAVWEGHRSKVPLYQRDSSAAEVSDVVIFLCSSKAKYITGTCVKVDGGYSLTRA

[9] = target: T4, HeLa cell extract proteins (Homo sapiens, UniProt O95347); assay type: binding; details: protein SMC2; HeLa
T4 construct: endogenous in cells; host or cells: HeLa cell extract
T4 sequence (O95347 whole entry): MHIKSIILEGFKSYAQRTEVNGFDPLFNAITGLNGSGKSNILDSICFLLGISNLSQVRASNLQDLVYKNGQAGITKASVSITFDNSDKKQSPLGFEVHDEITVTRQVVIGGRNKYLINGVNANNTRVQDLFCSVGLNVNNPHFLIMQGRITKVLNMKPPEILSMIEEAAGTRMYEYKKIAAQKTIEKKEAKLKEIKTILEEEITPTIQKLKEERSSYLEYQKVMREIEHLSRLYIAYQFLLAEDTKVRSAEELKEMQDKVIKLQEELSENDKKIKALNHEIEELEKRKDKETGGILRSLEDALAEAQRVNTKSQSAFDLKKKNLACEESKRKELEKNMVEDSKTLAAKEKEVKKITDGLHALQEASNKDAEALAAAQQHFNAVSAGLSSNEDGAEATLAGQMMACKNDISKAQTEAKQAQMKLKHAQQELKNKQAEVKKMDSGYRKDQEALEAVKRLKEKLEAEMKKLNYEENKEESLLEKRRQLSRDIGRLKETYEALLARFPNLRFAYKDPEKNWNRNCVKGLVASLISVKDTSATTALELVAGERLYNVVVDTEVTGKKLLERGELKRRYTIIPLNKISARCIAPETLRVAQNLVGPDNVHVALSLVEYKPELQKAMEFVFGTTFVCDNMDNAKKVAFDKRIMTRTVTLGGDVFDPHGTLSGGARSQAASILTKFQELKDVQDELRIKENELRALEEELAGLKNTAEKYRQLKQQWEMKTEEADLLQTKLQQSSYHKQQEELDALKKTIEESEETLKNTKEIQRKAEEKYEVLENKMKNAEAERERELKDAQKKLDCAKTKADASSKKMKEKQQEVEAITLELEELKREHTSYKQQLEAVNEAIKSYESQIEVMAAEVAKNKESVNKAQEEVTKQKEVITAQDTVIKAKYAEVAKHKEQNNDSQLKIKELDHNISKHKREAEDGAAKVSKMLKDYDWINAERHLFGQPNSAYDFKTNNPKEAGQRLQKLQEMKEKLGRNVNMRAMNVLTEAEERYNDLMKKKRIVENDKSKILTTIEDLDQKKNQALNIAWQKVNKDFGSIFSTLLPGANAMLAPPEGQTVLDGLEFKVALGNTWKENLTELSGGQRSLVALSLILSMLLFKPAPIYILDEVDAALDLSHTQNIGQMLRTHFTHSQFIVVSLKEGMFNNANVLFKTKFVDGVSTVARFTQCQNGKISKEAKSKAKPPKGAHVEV

[10] = target: T5, HeLa cell extract proteins (Homo sapiens, UniProt P30048); assay type: binding; details: protein PRDX3; HeLa
T5 construct: endogenous in cells; host or cells: HeLa cell extract
T5 sequence (P30048 62-256): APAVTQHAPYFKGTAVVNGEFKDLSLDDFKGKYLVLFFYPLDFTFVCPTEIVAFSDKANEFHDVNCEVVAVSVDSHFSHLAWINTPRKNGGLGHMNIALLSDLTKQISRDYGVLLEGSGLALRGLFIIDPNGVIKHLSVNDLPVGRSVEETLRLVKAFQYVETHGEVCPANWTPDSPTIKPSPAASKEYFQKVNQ

[11] = protein TB427.07.5480 DIH[…]-T[…]
[12] = protein TB427.02.6180 IRON/ASCORBATE OXIDOREDUCTASE FAMILY PROTEIN, vehicle control = 1
[13] = protein CZT00028390.1 PUTATIVE ADENYLATE CYCLASE […] (ESAG8), vehicle control = 1
[14] = vs vehicle control, protein LMJF.23.0270 PTERIDINE REDUCTASE 1
[15] = protein TB427.02.6180 IRON/ASCORBATE OXID[…] PROTEIN, vehicle control = 1
[16] = relative to vehicle control = 1, protein TB427.02.6180 IRON/ASCORBATE OXIDOREDUCTASE FAMILY PROTEIN
[17] = LMJF.23.0270 PTERIDINE REDUCTASE 1, vehicle control = 1

Structure (SMILES) | fold change vs vehicle control [1] | fold change vs vehicle control [2, 11] | fold change [3] | fold change vs vehicle control [5, 13] | fold changes relative to vehicle control ([6]; protein S100A8, HeLa) | fold change [7] | fold changes relative to vehicle control (methylene-THF-reductase; protein MTHFR, HeLa) | fold changes relative to vehicle control ([8]; protein MTHFS, HeLa) | fold change (PTR1; [14]) | fold change - vehicle control [1] | fold change - vehicle control [2, 11] | fold change - vehicle control [3] | fold change - vehicle control [5] | fold changes relative to vehicle control [9] | fold changes relative to vehicle control [10] | fold changes relative to vehicle control (methylene-THF-reductase; captured protein MTHFR, HeLa) | fold changes relative to vehicle control ([8]; captured protein MTHFS, HeLa) | fold change (PTR1; [17]) | also measured
Nc1nc2c(c(=O)[nH]1)N(C=O)C(CNc1ccc(C(=O)N[C@@H](CCC(=O)O)C(=O)O)cc1)CN2 (some centres unmarked) [LEU, leucovorin] | 0.92 | 1.45 | 1.01 | 1.17 | 0.28 | 1.11 | 0.52 | 0.15 | 1.04 |  |  |  |  |  |  |  |  |  | fold change [4, 12]: 0.92; binding to MTHFS [8]: bound MTHFS
NCCCNc1ccc(C(=O)NC(CCC(=O)O)C(=O)O)cc1 (centres unmarked) [compound 7] | 1.03 | 0.98 | 1.07 | 0.95 | 0.26 | 1.04 | 1 | 1.03 | 1.02 |  |  |  |  |  |  |  |  |  | fold change [4, 15]: 1.02
CCCCCCOc1cccc(Cc2cnc(N)nc2N)c1 [compound 2] |  |  |  |  |  | 1.03 |  |  |  | 0.92 | 1.44 | 1.01 | 0.97 | 1.36 | 1.52 | 0.58 | 0.89 | 1.13 | fold change [4, 16]: 0.92
CCCCCCOc1ccc(Cc2cnc(N)nc2N)cc1 [compound 1] |  |  |  |  |  | 0.93 |  |  |  | 1 | 1.45 | 0.93 | 1.15 | 1.4 | 1.11 | 0.27 | 0.21 | 1.1 | fold change [4, 16]: 0.85
Nc1nc2cccc(-c3ccccc3)c2n1Cc1ccc(Cl)c(Cl)c1 [compound 3] |  |  |  |  |  | 1 |  |  |  | 0.15 | 0.98 | 0.99 | 0.98 | 1.11 | 0.99 | 1.06 | 0.96 | 0.99 | competition for PTR1 (Figure 6) ([1]; T. brucei lysate): competed for PTR1; percentage of competition from bead binding ([1]; multitargeted bead mixture, free ligand 100 μM, T. brucei lysate, TB927.8.2210 PTERIDINE REDUCTASE): 89%; percentage of competition from bead binding ([2]; multitargeted bead mixture, free ligand 100 μM, T. brucei lysate, TB427.07.5480 DHFR-TS): -11%; percentage of competition from bead binding ([3]; multitargeted bead mixture, free ligand 100 μM, T. brucei lysate, TB427.06.4300 GAPDH): 3%; percentage of competition from bead binding ([4]; multitargeted bead mixture, free ligand 100 μM, T. brucei lysate, Tb427.02.6180): 0%; fold change ([4]; relative to vehicle control = 1, protein TB427.02.6180 IRON/ASCORBATE OXID[…] PROTEIN): 0.9; competition for PTR1 (Figure 8a) (PTR1; bead mixture, L. major lysate): no inhibition of PTR1
NCCOCCOCC(=O)Nc1nc2ncc(CNc3ccc(C(=O)NC(CCC(=O)O)C(=O)O)cc3)nc2c(=O)[nH]1 (centres unmarked) [compound 6] | 0.49 | 1.09 | 0.92 | 1.1 | 0.4 | 1 | 0.84 | 0.5 | 0.98 |  |  |  |  |  |  |  |  |  | fold change [4, 12]: 0.28
Nc1nc2[nH]cc(CCc3ccc(C(=O)N[C@@H](CCC(=O)O)C(=O)O)cc3)c2c(=O)[nH]1 [PTX, pemetrexed] | 0.16 |  | 0.91 |  |  | 0.49 |  |  |  |  |  |  |  |  |  |  |  |  | competition for PTR1 (Figure 6) ([1]; T. brucei lysate): competed for PTR1; fold change vs vehicle control ([2]; protein TB427.07.5480 DIHYDROFOLATE REDUCTASE-T[…]): 1.19; fold change [4, 15]: 0.95; fold change vs vehicle control [5]: 1.01; fold changes relative to vehicle control [6]: 0.34; binding to inosine-5′-monophosphate dehydrogenase (Tb927.10.16120) ([7]; bead mixture, T. brucei lysates): appeared to bind; fold changes relative to vehicle control (methylene-THF-reductase): 0.47; fold changes relative to vehicle control [8]: 0.17; binding to MTHFS [8]: bound MTHFS; fold change (PTR1): 0.52
